Source: publication PMC6277767, “Broad and Region-Specific Impacts of the Synthetic Cannabinoid CP 55,940 in Adolescent and Adult Female Mouse Brains” (Frontiers in Molecular Neuroscience, 2018)

System: CD1 female mouse brain lipidome
Test: Brain-region lipid levels (HPLC/MS/MS lipidomics) 2 h after single i.p. 3 mg/kg CP 55,940 vs vehicle
Type: in vivo
Conditions: cerebellum
Method: The Bloomington Institutional Animal Care and Use Committee of Indiana University reviewed and approved the animal procedures. Female mice from the CD1 strain were utilized to match our study examining THC’s effects on the brain lipidome ([Leishman et al., 2018]). Mice were given a single i.p. injection of either 3 mg/kg CP or 1:1:18 cremophor:ethanol:saline vehicle (please refer to the section “3 mg/kg CP Is Relevant for Synthetic Cannabinoid Abuse and Has Stronger Effects on the Female Mouse Brain Lipidome During Adolescence” for a justification of dose and use of female mice). Three different age groups were given injections: PND 35 and PND 50 adolescents, and adult mice (PND 113). At least eight mice in each age group received CP and at least eight received vehicle. Matching the THC study time course ([Leishman et al., 2018]), mice were sacrificed via rapid decapitation 2 h after injection. Brains were immediately removed and flash-frozen in liquid nitrogen, and then stored at -80°C until dissections were performed. Brains were dissected on an ice-cold dissection plate into the following regions: STR, HIPP, CER, THAL, CTX, HYP, MID, and STEM. These abbreviations for these brain areas will be used exclusively when discussing the results generated by these specific dissections. Each dissected area was immediately placed in liquid nitrogen and then stored at -80°C until used for lipid extraction.
Tissue extracts were performed as previously described ([Bradshaw et al., 2006]; [Stuart et al., 2013]; [Raboune et al., 2014]; [Leishman et al., 2016a],[b], [2017], [2018]). First, samples were shock frozen in liquid nitrogen, weighed, and transferred to a centrifuge tube. The mass of the largest sample was multiplied by 50 to determine how many milliliters of HPLC-grade methanol (Fisher, Fair Lawn, NJ, United States) to add. Then, samples were spiked with 500 pmol deuterium-labeled NAGly (d8NAGly; Cayman Chemical, Ann Arbor, MI, United States). Samples were placed on ice in darkness for 2 h then individually homogenized and centrifuged at 19,000 × g for 20 min at 20°C. Supernatants were diluted with HPLC water (purified in house) to make a solution of 75% water, 25% supernatant. Lipids were partially purified on C18 solid phase extraction columns (Agilent, Palo Alto, CA, United States). A series of four elutions with 1.5 mL of 60%, 75%, 85%, and 100% methanol were collected ([Stuart et al., 2013]; [Leishman et al., 2016a],[b], [2018]).
As previously described ([Bradshaw et al., 2006]; [Tan et al., 2006]; [Smoum et al., 2010]; [Stuart et al., 2013]; [Tortoriello et al., 2013]; [Raboune et al., 2014]; [Leishman et al., 2016a],[b], [2017], [2018]), samples were analyzed using an Applied Biosystems API 3000 triple quadrupole mass spectrometer with electrospray ionization (Foster City, CA, United States). Using an Agilent XDB-C18 reversed phase analytical column and optimized mobile phase gradients, 20 μL from each elution were chromatographed. Two Shimadzu 10ADvp pumps (Columbia, MD, United States) provided the pressure for gradient elution. Mobile phase A: 20% methanol, 80% water (v/v) and 1 mM ammonium acetate (Sigma, St. Louis, MO, United States). Mobile phase B: 100% methanol, 1 mM ammonium acetate. Every method run began with 0% mobile phase B, reached 100% mobile phase B flowing at 0.2 mL/min, and gradually returned to 0% mobile phase B.
This screening library will be referred to as the lipidome when discussing data from this study. HPLC/MS/MS data were analyzed using Analyst software (Applied Biosystems) ([Bradshaw et al., 2006]; [Tan et al., 2006]; [Stuart et al., 2013]; [Tortoriello et al., 2013]; [Raboune et al., 2014]; [Leishman et al., 2016a],[b], [2017], [2018]). Chromatograms (Supplementary Figure 3) were generated by determining the retention time of analytes from the analytical column with a [M-1] or [M+1] parent peak and a fragmentation peak corresponding to the programmed values. […]

[1] = WT adult female mice, 3mg/kg CP 55,940

Compound: CCCCCCC(C)(C)c1ccc([C@@H]2C[C@H](O)CC[C@H]2CCCO)c(O)c1 [CP 55,940]
- N-palmitoyl serine level, Mean [1]: 5.77E-12
- N-palmitoyl tyrosine level, Mean [1]: 9.82E-13
- N-palmitoyl valine level, Mean [1]: 1.08E-13
- N-stearoyl GABA level, Mean [1]: 1.12E-11
- N-stearoyl alanine level, Mean [1]: 5.69E-12
- N-stearoyl ethanolamine level, Mean [1]: 1.6E-11
- N-stearoyl glycine level, Mean [1]: 1.62E-12
- N-stearoyl leucine level, Mean [1]: 1.18E-12
- N-stearoyl methionine level, Mean [1]: 3.32E-13
- N-stearoyl phenylalanine level, Mean [1]: 2.74E-13
- N-stearoyl serine level, Mean [1]: 1.52E-11
- Oleic acid level, Mean [1]: 6.36E-10
- PGE2 level, Mean [1]: 2.14E-10
- PhosphoLEA level, Mean [1]: 4.64E-12
- 2-arachidonoyl glycerol: Direction (relative to Veh) (adult, 3 mg/kg CP 55,940): ↓
- 2-arachidonoyl glycerol: Magnitude (x Veh level) (adult, 3 mg/kg CP 55,940): 0.81 x Veh level
- 2-linoleoyl glycerol: Direction (relative to Veh) (adult, 3 mg/kg CP 55,940): ↓
- 2-linoleoyl glycerol: Magnitude (x Veh level) (adult, 3 mg/kg CP 55,940): 0.66 x Veh level
- 2-oleoyl glycerol: Direction (relative to Veh) (adult, 3 mg/kg CP 55,940): ↓
- 2-oleoyl glycerol: Magnitude (x Veh level) (adult, 3 mg/kg CP 55,940): 0.74 x Veh level
- 6-ketoPGF1α: Direction (relative to Veh) (adult, 3 mg/kg CP 55,940): ↓
- 6-ketoPGF1α: Magnitude (x Veh level) (adult, 3 mg/kg CP 55,940): 0.68 x Veh level
- Arachidonic acid: Direction (relative to Veh) (adult, 3 mg/kg CP 55,940): ↓
- Arachidonic acid: Magnitude (x Veh level) (adult, 3 mg/kg CP 55,940): 0.67 x Veh level
- Linoleic acid: Direction (relative to Veh) (adult, 3 mg/kg CP 55,940): ↓
- Linoleic acid: Magnitude (x Veh level) (adult, 3 mg/kg CP 55,940): 0.63 x Veh level
- N-arachidonoyl GABA: Direction (relative to Veh) (adult, 3 mg/kg CP 55,940): ↓
- N-arachidonoyl GABA: Magnitude (x Veh level) (adult, 3 mg/kg CP 55,940): 0.65 x Veh level
- N-arachidonoyl ethanolamine: Direction (relative to Veh) (adult, 3 mg/kg CP 55,940): ↓
- N-arachidonoyl ethanolamine: Magnitude (x Veh level) (adult, 3 mg/kg CP 55,940): 0.63 x Veh level
- N-arachidonoyl phenylalanine: Direction (relative to Veh) (adult, 3 mg/kg CP 55,940): ↓
- N-arachidonoyl phenylalanine: Magnitude (x Veh level) (adult, 3 mg/kg CP 55,940): 0.41 x Veh level
- N-arachidonoyl taurine: Direction (relative to Veh) (adult, 3 mg/kg CP 55,940): ↓
- N-arachidonoyl taurine: Magnitude (x Veh level) (adult, 3 mg/kg CP 55,940): 0.77 x Veh level
- N-docosahexaenoyl GABA: Direction (relative to Veh) (adult, 3 mg/kg CP 55,940): ↓
- N-docosahexaenoyl GABA: Magnitude (x Veh level) (adult, 3 mg/kg CP 55,940): 0.83 x Veh level
- N-docosahexaenoyl ethanolamine: Direction (relative to Veh) (adult, 3 mg/kg CP 55,940): ↓
- N-docosahexaenoyl ethanolamine: Magnitude (x Veh level) (adult, 3 mg/kg CP 55,940): 0.73 x Veh level
- N-linoleoyl GABA: Direction (relative to Veh) (adult, 3 mg/kg CP 55,940): ↓
- N-linoleoyl GABA: Magnitude (x Veh level) (adult, 3 mg/kg CP 55,940): 0.83 x Veh level
- N-linoleoyl ethanolamine: Direction (relative to Veh) (adult, 3 mg/kg CP 55,940): ↓
- N-linoleoyl ethanolamine: Magnitude (x Veh level) (adult, 3 mg/kg CP 55,940): 0.64 x Veh level
- N-oleoyl serine: Direction (relative to Veh) (adult, 3 mg/kg CP 55,940): ↓
- N-oleoyl serine: Magnitude (x Veh level) (adult, 3 mg/kg CP 55,940): 0.72 x Veh level
- N-oleoyl valine: Direction (relative to Veh) (adult, 3 mg/kg CP 55,940): ↑
- N-oleoyl valine: Magnitude (x Veh level) (adult, 3 mg/kg CP 55,940): 2.05 x Veh level
- N-palmitoyl tyrosine: Direction (relative to Veh) (adult, 3 mg/kg CP 55,940): ↓
- N-palmitoyl tyrosine: Magnitude (x Veh level) (adult, 3 mg/kg CP 55,940): 0.74 x Veh level
- Oleic acid: Direction (relative to Veh) (adult, 3 mg/kg CP 55,940): ↓
- Oleic acid: Magnitude (x Veh level) (adult, 3 mg/kg CP 55,940): 0.63 x Veh level
- PGE2: Direction (relative to Veh) (adult, 3 mg/kg CP 55,940): ↓
